Source: PubChem BioAssay (NCI)
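Growth conditions: 96-well plates. Treatment: test compound, 48 hours, 5 concentrations. Analysis: linear interpolation between bracketing concentrations; unreached endpoints set to highest concentration. TGI is the concentration that stops growth completely.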

Key:
Assay in all cases: NCI tumour cell line growth inhibition, 48 h
[1] = system: P388 leukemia
[2] = system: OVCAR-8 ovarian
[3] = system: MALME-3M melanoma
[4] = system: HL-60(TB) leukemia
[5] = system: SN12C renal
[6] = system: T-47D breast
[7] = system: U251 CNS
[8] = system: HCC-2998 colon
[9] = system: SR leukemia
[10] = system: SK-OV-3 ovarian
[11] = system: DMS 273 small cell lung
[12] = system: KM20L2 colon
[13] = system: CCRF-CEM leukemia
[14] = system: SF-268 CNS
[15] = system: KM12 colon
[16] = system: M19-MEL melanoma
[17] = system: BT-549 breast
[18] = system: OVCAR-4 ovarian
[19] = system: M14 melanoma
[20] = system: COLO 205 colon
[21] = system: DLD-1 colon
[22] = system: MDA-MB-231 breast
[23] = system: SNB-19 CNS
[24] = system: SN12K1 renal
[25] = system: SNB-75 CNS
[26] = system: P388/ADR leukemia
[27] = system: HOP-18 NSCLC
[28] = system: SK-MEL-2 melanoma
[29] = system: MCF7 breast
[30] = system: HCT-15 colon
[31] = system: SNB-78 CNS
[32] = system: SW-620 colon
[33] = system: A498 renal
[34] = system: MDA-N
[35] = system: HCT-116 colon
[36] = system: HOP-92 NSCLC
[37] = system: DU-145 prostate
[38] = system: EKVX NSCLC
[39] = system: NCI-H226 lung
[40] = system: CAKI-1 renal
[41] = system: LXFL 529 NSCLC
[42] = system: ACHN renal
[43] = system: UO-31 renal
[44] = system: HT29 colon
[45] = system: NCI-H460 lung
[46] = system: RPMI-8226 leukemia
[47] = system: UACC-62 melanoma
[48] = system: OVCAR-5 ovarian
[49] = system: XF 498 CNS
[50] = system: K-562 leukemia
[51] = system: LOX IMVI melanoma
[52] = system: MDA-MB-435
[53] = system: NCI-H23 lung
[54] = system: NCI-H522 lung
[55] = system: SF-539 CNS
[56] = system: HS 578T breast
[57] = system: DMS 114 small cell lung
[58] = system: NCI/ADR-RES ovarian
[59] = system: RXF 393 renal
[60] = system: UACC-257 melanoma
[61] = system: HOP-62 NSCLC
[62] = system: PC-3 prostate
[63] = system: 786-0 renal
[64] = system: IGROV1 ovarian
[65] = system: A549 NSCLC
[66] = system: MOLT-4 leukemia
[67] = system: SK-MEL-5 melanoma
[68] = system: OVCAR-3 ovarian
[69] = system: TK-10 renal
[70] = system: SF-295 CNS
[71] = system: SK-MEL-28 melanoma

Structure (SMILES): COc1cc(/C=C/C(=O)Oc2ccc(NC(C)=O)cc2)ccc1C(=O)OCc1ccccc1
- TGI [1]: > 100 µM
- TGI [2]: > 100 µM
- TGI [3]: > 100 µM
- TGI [4]: > 100 µM
- TGI [5]: > 100 µM
- TGI [6]: > 100 µM
- TGI [7]: > 78.7 µM
- TGI [8]: > 100 µM
- TGI [9]: > 100 µM
- TGI [10]: > 92 µM
- TGI [11]: > 100 µM
- TGI [12]: > 100 µM
- TGI [13]: > 100 µM
- TGI [14]: > 100 µM
- TGI [15]: > 100 µM
- TGI [16]: > 100 µM
- TGI [17]: > 100 µM
- TGI [18]: > 100 µM
- TGI [19]: > 100 µM
- TGI [20]: > 100 µM
- TGI [21]: > 100 µM
- TGI [22]: > 100 µM
- TGI [23]: > 91.2 µM
- TGI [24]: > 100 µM
- TGI [25]: 47.6 µM
- TGI [26]: > 100 µM
- TGI [27]: > 100 µM
- TGI [28]: 99.8 µM
- TGI [29]: > 100 µM
- TGI [30]: > 100 µM
- TGI [31]: > 89.4 µM
- TGI [32]: > 100 µM
- TGI [33]: > 100 µM
- TGI [34]: > 100 µM
- TGI [35]: > 100 µM
- TGI [36]: > 100 µM
- TGI [37]: > 100 µM
- TGI [38]: > 100 µM
- TGI [39]: > 100 µM
- TGI [40]: > 100 µM
- TGI [41]: > 100 µM
- TGI [42]: > 100 µM
- TGI [43]: > 100 µM
- TGI [44]: > 100 µM
- TGI [45]: > 100 µM
- TGI [46]: > 100 µM
- TGI [47]: > 97.1 µM
- TGI [48]: > 100 µM
- TGI [49]: > 70.2 µM
- TGI [50]: > 100 µM
- TGI [51]: > 100 µM
- TGI [52]: > 100 µM
- TGI [53]: > 100 µM
- TGI [54]: > 100 µM
- TGI [55]: 60.8 µM
- TGI [56]: > 100 µM
- TGI [57]: > 100 µM
- TGI [58]: > 100 µM
- TGI [59]: 58.3 µM
- TGI [60]: > 100 µM
- TGI [61]: > 91.3 µM
- TGI [62]: > 100 µM
- TGI [63]: > 100 µM
- TGI [64]: > 93.2 µM
- TGI [65]: > 100 µM
- TGI [66]: > 100 µM
- TGI [67]: > 100 µM
- TGI [68]: > 100 µM
- TGI [69]: > 100 µM
- TGI [70]: > 89.3 µM
- TGI [71]: > 100 µM

Structure (SMILES): O=[N+]([O-])c1ccc2[nH]c3c(-c4ccccc4)nccc3c2c1
- TGI [1]: > 47.3 µM
- TGI [2]: > 58.7 µM
- TGI [3]: 50.7 µM
- TGI [4]: 26.4 µM
- TGI [5]: > 84.6 µM
- TGI [7]: > 64.9 µM
- TGI [8]: 71 µM
- TGI [10]: 55.7 µM
- TGI [11]: 18.1 µM
- TGI [12]: > 100 µM
- TGI [13]: 62.7 µM
- TGI [14]: > 80 µM
- TGI [15]: > 100 µM
- TGI [16]: > 78.4 µM
- TGI [18]: > 63.1 µM
- TGI [20]: > 86.8 µM
- TGI [21]: > 94.3 µM
- TGI [23]: 58.5 µM
- TGI [24]: 79.9 µM
- TGI [25]: 38.3 µM
- TGI [26]: 31.4 µM
- TGI [27]: 61.9 µM
- TGI [28]: 76.6 µM
- TGI [29]: > 60.3 µM
- TGI [30]: > 74.7 µM
- TGI [31]: 93.1 µM
- TGI [32]: > 89.7 µM
- TGI [33]: > 100 µM
- TGI [35]: > 51.8 µM
- TGI [36]: 65.9 µM
- TGI [38]: > 79.3 µM
- TGI [39]: 50.5 µM
- TGI [43]: 44.4 µM
- TGI [44]: > 100 µM
- TGI [45]: 40.9 µM
- TGI [46]: > 100 µM
- TGI [47]: 38.6 µM
- TGI [48]: > 100 µM
- TGI [49]: > 61.7 µM
- TGI [50]: > 100 µM
- TGI [51]: > 100 µM
- TGI [53]: > 100 µM
- TGI [54]: 37.4 µM
- TGI [55]: > 100 µM
- TGI [57]: > 87.2 µM
- TGI [58]: > 65.1 µM
- TGI [59]: > 96.2 µM
- TGI [60]: 89.4 µM
- TGI [61]: 43 µM
- TGI [64]: 48.6 µM
- TGI [65]: > 62 µM
- TGI [66]: 16.4 µM
- TGI [67]: > 61.1 µM
- TGI [68]: 39.4 µM
- TGI [70]: 45.7 µM
- TGI [71]: > 85.3 µM
